# From US20240343740A1, “MACROCYCLIC GLUCAGON-LIKE PEPTIDE 1 RECEPTOR AGONISTS” (Eli Lilly and Company, priority 2021, published 2024)
# Assays:
# human GLP-1R [1] = target: T1, human GLP-1R (Homo sapiens, UniProt P43220); assay: Human GLP-1 Receptor HEK293 cell cAMP assay, 581 fmol/mg GLP-1R expression density; format: cell-based; set-up: expressed in transfected cells; host or cells: HEK293 clonal cell line; conditions: HEK293 cell line with 581 fmol/mg expression density of GLP-1R; for EC50: geometric mean, read-out: EC50 nM (SEM, n), intracellular cAMP response, relative EC50; for Emax: percent of maximal response to GLP-1(7-36)NH2, arithmetic mean, read-out: Emax % (SEM, n), intracellular cAMP response
# Procedure, shortened: (§1)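 HEK293 clonal lines expressing human GLP-1R, 20-point compound curves, 30 min at 37° C in DMEM with 0.1% casein, 250 μM IBMX, 0.5% DMSO. cAMP by HTRF, converted via standard curve to % of maximal human GLP-1(7-36)NH2 response; relative EC50 and Emax from four-parameter logistic fit.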
# human GLP-1R [2] = target: T1, human GLP-1R; assay: Human GLP-1 Receptor HEK293 cell cAMP assay, 104 fmol/mg GLP-1R expression density; format: cell-based; set-up: expressed in transfected cells; host or cells: HEK293 clonal cell line; conditions: HEK293 cell line with 104 fmol/mg expression density of GLP-1R; for EC50: geometric mean, read-out: EC50 nM (SEM, n), intracellular cAMP response, relative EC50; for Emax: percent of maximal response to GLP-1(7-36)NH2, arithmetic mean, read-out: Emax % (SEM, n), intracellular cAMP response
# Procedure, shortened: as §1
# T1 sequence (P43220 24-463): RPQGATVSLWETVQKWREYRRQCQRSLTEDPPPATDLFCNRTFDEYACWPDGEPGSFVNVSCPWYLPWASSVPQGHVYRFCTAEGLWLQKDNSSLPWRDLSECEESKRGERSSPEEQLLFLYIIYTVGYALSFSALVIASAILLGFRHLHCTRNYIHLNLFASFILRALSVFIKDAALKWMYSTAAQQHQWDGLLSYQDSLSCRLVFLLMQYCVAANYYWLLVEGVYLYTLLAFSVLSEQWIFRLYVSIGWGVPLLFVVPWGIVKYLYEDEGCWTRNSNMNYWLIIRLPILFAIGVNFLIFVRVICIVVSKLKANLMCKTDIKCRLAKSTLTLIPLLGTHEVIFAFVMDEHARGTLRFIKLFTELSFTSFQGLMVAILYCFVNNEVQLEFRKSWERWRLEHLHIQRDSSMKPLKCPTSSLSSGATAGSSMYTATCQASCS
Compound,EC50 (human GLP-1R [1]) [nM],Emax (human GLP-1R [1]) [%],EC50 (human GLP-1R [2]) [nM],Emax (human GLP-1R [2]) [%]
"Cc1nc(CCOc2cc(C(=O)O)cc3c2nc(Cc2ccc4cc2OCCCc2cc(C#N)ccc2COc2cccc-4n2)n3C[C@@H]2CCO2)co1 [Example 53, (S)-2-((5^4-Cyano-3,9-dioxa-2(2,6)-pyridina-1(1,3),5(1,2)-dibenzenacyclononaphane-1^4-yl)methyl)-4-(2-(2-methyloxazol-4-yl)ethoxy)-1-(oxetan-2-ylmethyl)-1H-benzo[d]imidazole-6-carboxylic acid]",77.8,104,293,58
"N#Cc1ccc2cc1CCOCc1cc(ccc1Cc1nc3ccc(C(=O)O)cc3n1C[C@@H]1CCO1)-c1cccc(n1)OC2 [Example 21, (S)-2-((5^4-Cyano-3,8-dioxa-2(2,6)-pyridina-1,5(1,3)-dibenzenacyclononaphane-1^4-yl)methyl)-1-(oxetan-2-ylmethyl)-1H-benzo[d]imidazole-6-carboxylic acid]",35.1,111,133,95.6
"CN(C)C(=O)c1ccc(-c2ccc3c(c2)CCCOc2cc(ccc2Cc2nc4ccc(C(=O)O)cc4n2C[C@@H]2CCO2)-c2cccc(n2)OC3)cc1 [Example 77, (S)-2-((5^4-(4-(Dimethylcarbamoyl)phenyl)-3,9-dioxa-2(2,6)-pyridina-1(1,3),5(1,2)-dibenzenacyclononaphane-1^4-yl)methyl)-1-(oxetan-2-ylmethyl)-1H-benzo[d]imidazole-6-carboxylic acid]",193,107,724,83
"N#Cc1ccc2c(c1)COCc1cc(c(F)cc1Cc1nc3ccc(C(=O)O)cc3n1C[C@@H]1CCO1)-c1cccc(n1)OC2 [Example 14, (S)-2-((5^4-Cyano-1^6-fluoro-3,7-dioxa-2(2,6)-pyridina-1(1,3),5(1,2)-dibenzenacyclooctaphane-1^4-yl)methyl)-1-(oxetan-2-ylmethyl)-1H-benzo[d]imidazole-6-carboxylic acid]",72.3,109,228,82.5
"COCCOc1cc(C(=O)O)cc2c1nc(Cc1ccc3cc1COCCc1cc(C#N)ccc1COc1cccc-3n1)n2C[C@@H]1CCO1 [Example 64, (S)-2-((5^4-Cyano-3,8-dioxa-2(2,6)-pyridina-1(1,3),5(1,2)-dibenzenacyclononaphane-1^4-yl)methyl)-4-(2-methoxyethoxy)-1-(oxetan-2-ylmethyl)-1H-benzo[d]imidazole-6-carboxylic acid]",2.13,110,5.53,87.3
"COCCOc1cc(C(=O)O)cc2c1nc(Cc1ccc3cc1COCCc1cc(ccc1C#N)COc1cccc-3n1)n2C[C@@H]1CCO1 [Example 65, (S)-2-((5^4-Cyano-3,8-dioxa-2(2,6)-pyridina-1,5(1,3)-dibenzenacyclononaphane-1^4-yl)methyl)-4-(2-methoxyethoxy)-1-(oxetan-2-ylmethyl)-1H-benzo[d]imidazole-6-carboxylic acid]",1.86,110,4.62,98.2
"CNCCOc1cc(C(=O)O)cc2c1nc(Cc1ccc3cc1COCCc1cc(Cl)ccc1COc1cccc-3n1)n2C[C@@H]1CCO1 [Example 57, (S)-2-((5^4-Chloro-3,8-dioxa-2(2,6)-pyridina-1(1,3),5(1,2)-dibenzenacyclononaphane-1^4-yl)methyl)-4-(2-(methylamino)ethoxy)-1-(oxetan-2-ylmethyl)-1H-benzo[d]imidazole-6-carboxylic acid]",440,76.2,1030,42.1
"O=C(O)c1ccc2nc(Cc3ccc4cc3OCCCc3cc(-c5cnn(CC6COC6)c5)ccc3COc3cccc-4n3)n(C[C@@H]3CCO3)c2c1 [Example 28, (S)-1-(Oxetan-2-ylmethyl)-2-((5^4-(1-(oxetan-3-ylmethyl)-1H-pyrazol-4-yl)-3,9-dioxa-2(2,6)-pyridina-1(1,3),5(1,2)-dibenzenacyclononaphane-1^4-yl)methyl)-1H-benzo[d]imidazole-6-carboxylic acid]",98.4,104,287,74.9
"Cn1cc(-c2ccc3c(c2)CCCOc2cc(ccc2Cc2nc4ccc(C(=O)O)cc4n2C[C@@H]2CCO2)-c2cccc(n2)OC3)cn1 [Example 40, (S)-2-((5^4-(1-Methyl-1H-pyrazol-4-yl)-3,9-dioxa-2(2,6)-pyridina-1(1,3),5(1,2)-dibenzenacyclononaphane-1^4-yl)methyl)-1-(oxetan-2-ylmethyl)-1H-benzo[d]imidazole-6-carboxylic acid]",42.4,110,154,85.9
"N#Cc1ccc2c(c1)CCOc1cc(c(F)cc1Cc1nc3ccc(C(=O)O)cc3n1C[C@@H]1CCO1)-c1cccc(n1)OC2 [Example 20, (S)-2-((5^4-Cyano-1^6-fluoro-3,8-dioxa-2(2,6)-pyridina-1(1,3),5(1,2)-dibenzenacyclooctaphane-1^4-yl)methyl)-1-(oxetan-2-ylmethyl)-1H-benzo[d]imidazole-6-carboxylic acid]",58,105,226,89.9
"COc1cc(C(=O)O)cc2c1nc(Cc1cc(C)c3cc1OCCCc1cc(C#N)ccc1COc1cccc-3c1)n2C[C@@H]1CCO1 [Example 15, (S)-2-((5^4-Cyano-1^6-methyl-3,9-dioxa-1,2(1,3),5(1,2)-tribenzenacyclononaphane-1^4-yl)methyl)-4-methoxy-1-(oxetan-2-ylmethyl)-1H-benzo[d]imidazole-6-carboxylic acid]",6.74,105,26.4,82.8
"N#Cc1ccc2c(c1)OCCOc1cc(c(F)cc1Cc1nc3ccc(C(=O)O)cc3n1C[C@@H]1CCO1)-c1cccc(n1)OC2 [Example 13, (S)-2-((5^4-Cyano-1^6-fluoro-3,6,9-trioxa-2(2,6)-pyridina-1(1,3),5(1,2)-dibenzenacyclononaphane-1^4-yl)methyl)-1-(oxetan-2-ylmethyl)-1H-benzo[d]imidazole-6-carboxylic acid]",120,88.5,542,74.7
"N#Cc1ccc2c(c1)CCOCc1cc(ccc1Cc1nc3ccc(C(=O)O)cc3n1C[C@@H]1CCO1)-c1cccc(n1)OC2 [Example 19, (S)-2-((5^4-Cyano-3,8-dioxa-2(2,6)-pyridina-1(1,3),5(1,2)-dibenzenacyclononaphane-1^4-yl)methyl)-1-(oxetan-2-ylmethyl)-1H-benzo[d]imidazole-6-carboxylic acid]",55.4,103,197,83
"N#Cc1ccc2c(c1)OCCc1cc(c(F)cc1Cc1nc3ccc(C(=O)O)cc3n1C[C@@H]1CCO1)-c1cccc(n1)OC2 [Example 42, (S)-2-((5^4-Cyano-1^6-fluoro-3,6-dioxa-2(2,6)-pyridina-1(1,3),5(1,2)-dibenzenacyclooctaphane-1^4-yl)methyl)-1-(oxetan-2-ylmethyl)-1H-benzo[d]imidazole-6-carboxylic acid]",187,103,539,66.4
